ChEMBL document CHEMBL6071152, “Design, synthesis, and biological evaluation of oridonin derivatives as novel NLRP3 inflammasome inhibitors for the treatment of acute lung injury” (Eur J Med Chem, 2024)
Calls of active or inactive are those of the source. No cut-off for these calls is given here.

Columns and labels:
[1] = target: NACHT, LRR and PYD domains-containing protein 3 (Mus musculus, UniProt Q8R4B8); assay: Inhibition of NLRP3 inflammasome activation in ICR mouse BMDM assessed as inhibition of LPS/ATP-stimulated IL-1 beta production in cell supernatant treated for 3 hrs with LPS followed by incubation with compound for 1 hr and later stimulated with ATP for 0.5 hrs by ELISA; format: cell-based
[2] = Cytotoxicity against ICR mouse BMDM assessed as reduction in cell viability incubated for 24 hrs by CCK8 assay; format: toxicity, cell-based; details: BMDM (bone marrow-derived macrophages)
Mus musculus [3] = assay: Anti-inflammatory activity against LPS-stimulated acute lung injury C57BL/6 mouse model assessed as decrease in weight loss at 1 mg/kg, ip treated for 3 days and on third day administered with LPS at 30 mins post-compound challenge; format: functional, organism-based; details: time 3.0 day
Mus musculus [4] = assay: Anti-inflammatory activity against LPS-stimulated acute lung injury C57BL/6 mouse model assessed as active animal at 5 mg/kg, ip treated for 3 days and on third day administered with LPS at 30 mins post-compound challenge; format: functional, organism-based; details: time 3.0 day
Mus musculus [5] = assay: (§1) Anti-inflammatory activity against LPS-stimulated acute lung injury C57BL/6 mouse model assessed as decrease in weight loss at 5 mg/kg, ip treated for 3 days and on third day administered with LPS at 30 mins post-compound challenge; format: functional, organism-based; details: time 3.0 day
Mus musculus [6] = assay: as §1, with “inflammatory cell infiltration in right lung” for “weight loss”, “challenge and measured after 12 hrs by Hematoxylin-Eosin staining analysis” for “challenge”; format: functional, organism-based; details: time 3.5 day
Mus musculus [7] = assay: as §1, with “alveolar dilation in right lung” for “weight loss”, “challenge and measured after 12 hrs by Hematoxylin-Eosin staining analysis” for “challenge”; format: functional, organism-based; details: time 3.5 day
Mus musculus [8] = assay: as §1, with “thickening of alveolar septa in right lung” for “weight loss”, “challenge and measured after 12 hrs by Hematoxylin-Eosin staining analysis” for “challenge”; format: functional, organism-based; details: time 3.5 day
Mus musculus [9] = assay: as §1, with “partial alveolar congestion in right lung” for “weight loss”, “challenge and measured after 12 hrs by Hematoxylin-Eosin staining analysis” for “challenge”; format: functional, organism-based; details: time 3.5 day

Sequence of NACHT, LRR and PYD domains-containing protein 3 (Q8R4B8 whole entry, the tested form may be a part): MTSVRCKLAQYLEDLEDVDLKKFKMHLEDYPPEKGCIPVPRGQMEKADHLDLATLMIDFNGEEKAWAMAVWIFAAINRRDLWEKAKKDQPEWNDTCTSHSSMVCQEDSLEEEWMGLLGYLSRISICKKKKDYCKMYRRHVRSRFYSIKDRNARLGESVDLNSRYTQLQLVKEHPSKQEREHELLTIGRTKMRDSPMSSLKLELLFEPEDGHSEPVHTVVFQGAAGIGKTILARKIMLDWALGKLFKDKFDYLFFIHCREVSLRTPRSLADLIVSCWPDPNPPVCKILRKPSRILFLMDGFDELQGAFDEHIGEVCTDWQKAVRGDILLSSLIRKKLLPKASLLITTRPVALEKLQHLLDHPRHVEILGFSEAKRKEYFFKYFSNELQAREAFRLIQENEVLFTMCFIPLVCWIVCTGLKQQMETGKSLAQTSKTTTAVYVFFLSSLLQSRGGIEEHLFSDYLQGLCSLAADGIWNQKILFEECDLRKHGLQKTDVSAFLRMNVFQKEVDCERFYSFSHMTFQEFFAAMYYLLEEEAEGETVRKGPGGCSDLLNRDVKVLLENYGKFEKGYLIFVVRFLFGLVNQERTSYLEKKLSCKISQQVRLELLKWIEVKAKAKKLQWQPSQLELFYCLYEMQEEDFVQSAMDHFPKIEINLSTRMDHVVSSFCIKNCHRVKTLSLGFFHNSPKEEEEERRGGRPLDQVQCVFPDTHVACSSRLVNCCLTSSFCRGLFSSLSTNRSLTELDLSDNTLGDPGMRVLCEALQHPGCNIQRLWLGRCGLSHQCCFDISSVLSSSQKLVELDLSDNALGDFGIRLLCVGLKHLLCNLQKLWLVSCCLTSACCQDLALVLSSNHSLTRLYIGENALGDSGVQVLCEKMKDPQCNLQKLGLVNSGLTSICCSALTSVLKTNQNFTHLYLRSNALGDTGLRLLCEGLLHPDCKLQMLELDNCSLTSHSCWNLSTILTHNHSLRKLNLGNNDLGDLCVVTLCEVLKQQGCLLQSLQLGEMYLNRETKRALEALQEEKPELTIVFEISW

| Structure (SMILES) | IC50 [1] [nM] | IC50 at 24 h [2] [nM] | further results |
| --- | --- | --- | --- |
| C=C1C(=O)[C@]23[C@H](O)[C@H]1CC[C@H]2[C@@]12CO[C@]3(O)[C@@H](O)[C@@H]1C(C)(C)CC[C@@H]2O [ORIDONIN] | 1240 | > 10000 | Activity (Mus musculus [3]): Active |
| C[C@@H]1C[C@H]2[C@@H]3CCC4=CC(=O)C=C[C@]4(C)[C@@]3(F)[C@@H](O)C[C@]2(C)[C@@]1(O)C(=O)CO |  |  | Activity (Mus musculus [4]): Active; Activity (Mus musculus [5]): Active; Activity (Mus musculus [6]): Active; Activity (Mus musculus [7]): Active; Activity (Mus musculus [8]): Active; Activity (Mus musculus [9]): Active |
| CC(C)(O)c1coc(S(=O)(=O)NC(=O)Nc2c3c(cc4c2CCC4)CCC3)c1 |  | > 10000 |  |
| C=C1C(=O)[C@]23[C@H](O)[C@H]1CC[C@H]2[C@]12C=CCC(C)(C)[C@H]1[C@H](O)[C@@]3(O)OC2 | 131 | > 10000 |  |

More lines, main results first:

| IC50 [1] [nM] | Structure (SMILES) | IC50 at 24 h [2] [nM] | further results |
| --- | --- | --- | --- |
| 88.6 | C=C1C(=O)[C@]23[C@H](OC(=O)Nc4ccccc4Cl)[C@H]1CC[C@H]2[C@]12C=CCC(C)(C)[C@H]1[C@H](O)[C@@]3(O)OC2 | > 10000 |  |
| 74.9 | C=C1C(=O)[C@]23[C@H](OC(=O)Nc4cccc5ccccc45)[C@H]1CC[C@H]2[C@]12C=CCC(C)(C)[C@H]1[C@H](O)[C@@]3(O)OC2 | > 10000 |  |
| 80.8 | C=C1C(=O)[C@]23[C@H](OC(=O)Nc4cccc(Cl)c4)[C@H]1CC[C@H]2[C@]12C=CCC(C)(C)[C@H]1[C@H](O)[C@@]3(O)OC2 | > 10000 |  |
| 96.1 | C=C1C(=O)[C@]23[C@H](OC(=O)Nc4ccccn4)[C@H]1CC[C@H]2[C@]12C=CCC(C)(C)[C@H]1[C@H](O)[C@@]3(O)OC2 | > 10000 |  |
| 135 | C=C1C(=O)[C@]23[C@H](OC(=O)NC4CCCCC4)[C@H]1CC[C@H]2[C@]12C=CCC(C)(C)[C@H]1[C@H](O)[C@@]3(O)OC2 | > 10000 |  |
| 178 | C=C1C(=O)[C@]23[C@H](OC(=O)NC4CCCC4)[C@H]1CC[C@H]2[C@]12C=CCC(C)(C)[C@H]1[C@H](O)[C@@]3(O)OC2 | > 10000 |  |
